Experiment [1] addresses Solute carrier family 22 member 1, OCT1 (Homo sapiens) (UniProt O15245). Description: Inhibition of OCT1 (unknown origin) expressed in HEK293 cells.
Experiment [2] has as its target Solute carrier family 22 member 2, OCT2 (Homo sapiens) (UniProt O15244). Description: Inhibition of OCT2 (unknown origin) expressed in HEK293 cells.

Chain of Solute carrier family 22 member 1, OCT1 (Homo sapiens) (O15245 whole entry, looked up): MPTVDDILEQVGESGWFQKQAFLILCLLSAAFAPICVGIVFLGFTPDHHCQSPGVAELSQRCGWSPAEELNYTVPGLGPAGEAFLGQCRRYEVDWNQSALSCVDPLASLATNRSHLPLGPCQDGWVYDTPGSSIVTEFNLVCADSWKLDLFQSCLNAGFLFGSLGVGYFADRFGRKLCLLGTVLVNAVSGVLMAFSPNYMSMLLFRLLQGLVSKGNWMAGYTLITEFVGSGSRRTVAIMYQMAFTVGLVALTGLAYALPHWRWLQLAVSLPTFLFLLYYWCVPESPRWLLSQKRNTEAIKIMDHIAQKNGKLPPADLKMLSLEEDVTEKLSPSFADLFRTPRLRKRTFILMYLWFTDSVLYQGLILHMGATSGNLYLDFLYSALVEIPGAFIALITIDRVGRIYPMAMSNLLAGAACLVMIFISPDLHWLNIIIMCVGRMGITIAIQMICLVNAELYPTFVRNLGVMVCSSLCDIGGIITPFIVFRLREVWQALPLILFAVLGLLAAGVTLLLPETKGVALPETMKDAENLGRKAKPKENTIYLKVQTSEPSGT
Chain of Solute carrier family 22 member 2, OCT2 (Homo sapiens) (O15244 whole entry, looked up): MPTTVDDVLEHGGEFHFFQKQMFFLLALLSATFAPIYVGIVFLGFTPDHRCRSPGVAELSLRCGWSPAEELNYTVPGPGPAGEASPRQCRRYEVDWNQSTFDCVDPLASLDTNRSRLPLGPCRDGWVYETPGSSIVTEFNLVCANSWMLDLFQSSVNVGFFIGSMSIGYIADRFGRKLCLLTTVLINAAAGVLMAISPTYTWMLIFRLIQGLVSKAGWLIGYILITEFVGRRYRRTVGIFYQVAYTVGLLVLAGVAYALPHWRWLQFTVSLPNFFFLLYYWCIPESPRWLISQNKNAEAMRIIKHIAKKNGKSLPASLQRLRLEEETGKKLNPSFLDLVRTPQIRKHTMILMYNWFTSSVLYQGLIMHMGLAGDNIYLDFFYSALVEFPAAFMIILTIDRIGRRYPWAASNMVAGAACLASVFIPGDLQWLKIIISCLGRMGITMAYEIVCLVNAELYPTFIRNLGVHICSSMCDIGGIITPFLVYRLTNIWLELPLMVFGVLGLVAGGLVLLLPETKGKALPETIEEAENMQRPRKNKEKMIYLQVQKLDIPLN

What is called IC50 is the point on the concentration scale where inhibition reaches its midpoint. A high value points to a need for much substance. Turning to `CCOC(=O)[C@@H](Cc1cn(C)c2ccccc12)NC(=O)[C@@H](N)CC(C)C`, the half-inhibitory concentration (IC50) in experiment [1] and in experiment [2] was greater than 50 µM each time.

The record behind these values is BindingDB's records for doi:10.1016/j.ejmech.2020.112373 (Newlink Genetics, 2020).
